Earlier results in US8846662B2, “Benzodiazepine and/or pharmaceutical composition comprising benzodiazepine derivatives” (Dr. Franz Koehler Chemie GmbH, priority 2008, dated 2014).

Tested on: specific binding sites in the central nervous system
Settings: background statement

Row | Compound | Affinity for specific binding sites in the central nervous system
1 | O=C1Nc2ccc(Cl)cc2C(c2ccccc2Cl)=NC1O (centres unmarked) [Lorazepam, 7-chloro-5-(o-chlorophenyl)-1,3-dihydro-3-hydroxy-2H-1,4-benzodiazepin-2-one] | very high affinity
2 | CN1C(=O)C(O)N=C(c2ccccc2Cl)c2cc(Cl)ccc21 (centres unmarked) [Lormetazepam, 9-chloro-6-(2-chlorophenyl)-4-hydroxy-2-methyl-2,5-diazabicyclo-[5.4.0]undeca-5,8,10,12-tetraen-3-one] | very high affinity
